In US20250241862A1, “EXOSOMAL COMPOSITIONS INCLUDING ANESTHETICS” (THE BOARD OF TRUSTEES OF THE UNIVERSITY OF ALABAMA, priority 2024, published 2025):
Structures can show the parent of a compound that is named as a salt.

Legend:
[1] = tested on: muscle at the injection site; experiment: Muscle histology (H&E) inflammation and myotoxicity scoring; format: in vivo, rat
Text: Following euthanasia, the sciatic nerve and adjacent muscle tissues were meticulously extracted. Muscle specimens underwent processing to yield slides stained with hematoxylin and eosin. A macroscopic dissection score was assigned based on the following criteria: 0=tissue planes obvious and easily separated; 1=tissue planes obvious but separated with some difficulty; 2=tissue planes adherent and separated with some difficulty; 3=tissue planes completely obliterated, could not separate surrounding tissues from nerve without cutting through them. Muscle samples underwent evaluation for inflammation (on a scale of 0-4) and myotoxicity (on a scale of 0-6). The inflammation score was a subjective measure of its severity. The myotoxicity score was based on two hallmark features of local anesthetic-induced myotoxicity: nuclear internalization and regeneration. […] Regeneration manifests as contracted myocytes with basophilic cytoplasm. The scoring was as follows: 0=normal; 1=perifascicular internalization; 2=deep internalization (>5 cell layers), 3=perifascicular regeneration, 4=deep regeneration, 5=hemifascicular regeneration, 6=holofascicular regeneration.
The sciatic nerve and surrounding tissues were harvested, sectioned, and stained for histologic assessment. Muscle tissues were processed for hematoxylin-eosin (H&E) staining. The myotoxicity and inflammation were quantified using a previously reported scoring system (Table 1, Table 2).

sciatic nerve [2] = experiment: Rat sciatic nerve block, neurobehavioral test (hot plate thermal latency, weight bearing); format: in vivo; details: for nerve block at injected site (observation): single sciatic nerve injection 0.3 mL
Text: Adult male Sprague-Dawley rats (Charles River Laboratories, Wilmington, MA) weighing 250-350 g were housed in groups, in a 6 am-6 pm light-dark cycle. Animals were cared for in accordance with protocols approved by the Institutional Animal Care and Use Committee of the University of Alabama (Protocol ID: 19-11-2992), and the Guide for the Care and Use of Laboratory Animals of the US National Research Council.
Nerve block injections were meticulously executed utilizing a 23-gauge needle, with rats being anesthetized under a combination of isoflurane and oxygen. […] Additionally, injections of free BUP were given at doses of 0.75 mg and 1.5 mg. A control group received an injection of 50 μg of empty exosomes. The injection technique involved positioning the needle posteromedially to the greater trochanter and directing it anteromedially. Upon making contact with the bone, the prepared solution was administered.
Subsequently, the rats underwent neurobehavioral test to determine the duration of functional deficits (i.e., sensory and motor nerve blockade) in both hind paws. The duration of deficits on the injected side (left, ipsilateral) reflected the duration of nerve block. Any deficits observed on the uninjected side (right, contralateral) were indicative of the systemic BUP distribution.
The efficacy of the nerve block was assessed at specified intervals using established methodologies. Sequentially, the left and then the right hind paws of the rats were subjected to a 56° C. hot plate (model 39D Hot Plate Analgesia meter; IITC Inc., Woodland Hills, CA). The duration until the paw was withdrawn, termed thermal latency, was meticulously recorded. […] Thermal latency serves as an indicator of analgesic potency. […] For a systemic effect baseline, latency was also gauged in the non-injected leg. The duration of the thermal nociceptive block was determined as the time taken for the thermal latency to revert from an elevated value to a baseline of 7 seconds. In adult rats, this 7-second threshold represents the median between the maximum block and the typical thermal latency, which is roughly 2 seconds, with the upper limit being 12 seconds. Motor function was evaluated by suspending the animal over a balance and recording the maximum weight the animal could bear. The duration of motor blockade was determined as the period until weight-bearing capacity returned to half of its normal level from the point of maximal block. For each rat, the halfway point was calculated as [(highest weight borne by either leg)−(lowest weight borne by the blocked leg)]/2+the lowest weight borne by the blocked leg.

sciatic nerve [3] = experiment: Sciatic nerve histology (toluidine blue) for neurotoxicity; format: in vivo, rat
Text: For nerve injury histology, samples underwent Epon-embedding and fixation using Karnovsky's KII Solution, which comprises 2.5% glutaraldehyde, 2.0% paraformaldehyde, and 0.025% calcium chloride in a 0.1 M sodium cacodylate buffer with a pH of 7.4. Subsequently, samples were post-fixed using osmium tetroxide, stained with uranyl acetate, and then dehydrated through a series of ethanol solutions. This was followed by infiltration with mixtures of propylene oxide and Epon. Sections, with a thickness of 0.5 μm, were then stained using toluidine blue, facilitating high-resolution light microscopy examination.
Epon-embedded sections of the sciatic nerve were stained with toluidine blue. […] Furthermore, when 2.5 mg free BUP was injected, 3 out of 4 tissues presented significant nerve degeneration, which is determined by the density decrease of nerve fibers within the nerve section (FIG. 6b).

[4] = In vitro release of BUP by dialysis; format: physicochemical; details: dialysis 8-10 kD, 1×PBS pH 7.4, 37° C.; free BUP at 0.5% (w/v) and saturated concentrations
Procedure: To assess the release kinetics of BUP from the BUP@EXO, a dialysis method was employed. Specifically, 1 mL of BUP@EXO, containing 5 mg BUP, was introduced into a Spectra/Por Float-A-Lyzer G2 dialysis bag with a molecular weight cutoff ranging from 8-10 kD (Spectrum Laboratories, Ranchodominguez, CA). This bag was then immersed in 20 mL of phosphate-buffered saline (PBS) with a pH of 7.4. The setup was maintained at 37° C. and subjected to continuous 200 rpm shaking. At specified time points, the dialysis bag was relocated to fresh 1×PBS to ensure a consistent concentration gradient. The concentration of BUP in the dialysate was ascertained by measuring its absorbance at 272 nm and referencing it against a pre-established standard curve. We collected the washout solutions (filtrate) in the lower chambers of centrifugal filters. Subsequently, these solutions underwent UV-Vis spectroscopy to determine the BUP concentration. The encapsulation efficiency is thereby calculated by
We conducted in-depth in vitro drug release kinetic analysis at 37° C. for our BUP@EXO formulations. 1 mL of BUP@EXO in 1×PBS, containing 5 mg BUP, was introduced into a dialysis bag with a molecular weight cutoff ranging from 8-10 kD. The dialysis bag was then immersed in 20 mL of 1×PBS with a pH of 7.4. The setup was maintained at 37° C. and subjected to continuous shaking of 200 rpm. […]

[5] = tested on: Creatine Kinase (CK-total, CK-MB) activity in serum; experiment: Serum creatine kinase activity (CK-total, CK-MB), cardiotoxicity; format: in vivo, rat; details: 48 hours after injection
Procedure: In another experiment, rats were euthanized at the 48-hour mark. Blood samples were meticulously collected through two methods: a cardiac puncture, which involves drawing blood directly from the heart, and a separate collection from the femoral artery. Once collected, the blood samples were subjected to centrifugation, a process that separates the serum from other blood components. The isolated serum was then analyzed for creatine kinase activity using a colorimetric assay kit for creatine kinase activity. The intensity was quantified using a plate-reader, an instrument that measures absorbance levels.
It is important to recognize that the side effects of BUP and other local anesthetics go beyond just localized tissue reactions. A major concern with administering BUP is its potential harmful cardiotoxic effects. This can be particularly severe in certain instances, such as arrhythmias and cardiac asystole. Cardiotoxicity can be observed through increased activity of Creatine Kinase(CK), an family of enzymes that is released into the blood in response to lesions in contractile fibers, serve as biochemical markers for muscle damage, including myocardial injury. Elevated activity levels of CK, especially its cardiomyocyte isoform—Creatine Kinase-Myocardial Band (CK-MB), can be a warning sign for serious outcomes such as cardiac arrhythmias, heart failure, and other cardiovascular complications.
Two types of samples were obtained: from the femoral artery and cardiac puncture. These samples were analyzed to evaluate the activity in serum of total CK (CK-total) and its cardiomyocyte isoform (CK-MB).

[6] = osmotic shock method; cited from earlier work

For `CCCCN1CCCCC1C(=O)Nc1c(C)cccc1C` (stereo not shown) [free BUP, Bupivacaine Hydrochloride], the “myotoxicity score (scale 0-6)” value ([1]; 1.5 mg, 4 days, 1 of 4 rats) was 2, the “inflammation score (out of 4)” value ([1]; 2.5 mg, 48 hours) was “up to 3” and the “myotoxicity score (out of 6)” value ([1]; 2.5 mg, 48 hours) was “up to 3”. For the same molecule, the “success rate of nerve blockade” value (sciatic nerve [2]; 0.75 mg BUP equivalent) was 0%, the “contralateral nerve blockade (systemic distribution)” value (sciatic nerve [2]; 0.75 mg BUP equivalent, uninjected side) was “no contralateral nerve blockade” and the “nerve block at injected site (observation)” value (sciatic nerve [2]; 0.75 mg BUP in PBS) was “neither a detectable nerve block nor toxicity”. For the same molecule, the “duration of motor blockade” value (sciatic nerve [2]; 1.5 mg BUP equivalent) was 0.458 ± 0.176 h, the “duration of sensory nerve blockade” value (sciatic nerve [2]; 1.5 mg BUP equivalent) was 1.833 ± 0.250 h and the “contralateral nerve blockade (systemic distribution)” value (sciatic nerve [2]; 1.5 mg BUP equivalent, uninjected side) was “no contralateral nerve blockade”. The “nerve block at injected site (observation)” value (sciatic nerve [2]; 1.5 mg BUP in PBS) was “successfully induced nerve block at the injected sites in all animals”, the occurrence of drowsiness (sciatic nerve [2]; 2.5 mg BUP) was 3 out of 4 animals and the “duration of motor blockade” value (sciatic nerve [2]; 2.5 mg BUP equivalent) was 2.12 ± 0.54 h. The “duration of sensory nerve blockade” value (sciatic nerve [2]; 2.5 mg BUP equivalent) was 2.75 ± 0.43 h, the “contralateral sensory nerve blockade (systemic distribution)” value (sciatic nerve [2]; 2.5 mg BUP equivalent, uninjected side) was 3 out of 4 animals and the contralateral thermal latency (sciatic nerve [2]; 2.5 mg BUP, uninjected side, 56° C. hot plate) was ~7 s. For the same molecule, the “tissues with signs of neurotoxicity” value (sciatic nerve [3]; 1.5 mg, 48 hours) was 1 out of 4, the “tissues with significant nerve degeneration” value (sciatic nerve [3]; 2.5 mg) was 3 out of 4 and the “cumulative release within initial 5-hour period” value [4] was “near-complete cumulative release”. For the same molecule, the “Creatine Kinase activity profiles (CK-total, CK-MB) vs blank control” value ([5]; 0.75 mg) was “did not result in significant alteration”, the “CK activity vs blank control” value ([5]; 1.5 mg) was “considerable elevation in CK activity” and the “CK activity vs blank control” value ([5]; 2.5 mg) was “considerable elevation in CK activity”.

In the case of `CC(=O)CCCCn1c(=O)c2c(ncn2C)n(C)c1=O` [pentoxifylline], the “encapsulation efficiency (drug per protein-equivalent exosomes)” value [6] is given as 0.85 μg of drug per μg of protein-equivalent exosomes.
